Data published in patent publication US20240293551A1, “USE OF ST-TYPE LIPID COMPOUNDS IN PREPARATION OF NUCLEIC ACID DELIVERY REAGENT AND RELATED PRODUCT” (INSTITUTE OF BASIC MEDICAL SCIENCES CHINESE ACADEMY OF …, priority 2021, published 2024).

Tested on: PGY-sRNA-26
Experiment: In vivo delivery study of lipid-nucleic acid mixture (oral gavage, RT-qPCR of PGY-sRNA-26 in tissues)
Set-up: species or system mouse
Details: C57BL/6 mice, gavage, 100 μg lipid: 10 nmol PGY-sRNA-26, 12 hours; for delivery efficacy over each tissue and blood tested (broad-spectrum delivery): all tissues and blood tested; for oral delivery of single-stranded sRNA nucleic acids into mouse intestinal tissue: intestine
Method: 10 nmol of small RNA (as shown in Table 2) was dissolved in 400 μl of DEPC-treated water in a glass tube, 10 μl of the corresponding lipid stock solution was added such that the lipid mass in the system was 100 μg. The mixture was mixed thoroughly, heated in a 90° C. water bath for 15 minutes, and then cooled naturally to obtain the lipid nucleic acid mixture of lipid and small RNA.
C57BL/6 male mice, approximately 6 weeks old, weighing 20-24 g, were obtained from Beijing Vital River Laboratory Animal Technology Co., Ltd. The mice were housed in the SPF-grade animal facility at the Animal Center of the Institute of Basic Medical Sciences, Chinese Academy of Medical Sciences. The mice were fasted for 12 hours before gavage administration.
The resultant lipid nucleic acid mixture was orally administered to each mouse at a dose of 100 μg lipid: 10 nmol single-stranded 3′-methylated small RNA PGY-sRNA-26.
• 1) Blank group (n=4): mice were administered with 500 μl saline by gavage, this group served as a blank control; • 2) Free uptake group (n=4): mice were directly administered with small RNA PGY-sRNA-26 solution (10 nmol/mouse, 500 μl) by gavage, this group served as a negative control; • 3) Lipid-treated group (n=4): mice were administered with 500 μl lipid nucleic acid mixture prepared in step 2 by gavage.
After 12 hours of gavage administration, 500 μl blood from the eyeball of each mouse was sampled, added to 1.5 ml Trizol Reagent LS (purchased from Invitrogen), thoroughly mixed for lysis. 3 ml of Trizol Reagent LSwas added to tissue samples and homogenized for complete lysis, wherein the sampled tissues include heart, liver, spleen, lung, kidney, stomach, intestine, brain, blood, femur. RNA was extracted from 1 ml of the blood or the tissue lysate following the steps below: • Centrifuge at 4° C., 12,000 rpm for 5 min, discard the precipitate, transfer Trizol to a new centrifuge tube; • Add chloroform at 200 μL chloroform/mL Trizol, shake well, stand at room temperature for 5 min; • Centrifuge at 4° C., 12,000 rpm for 15 min; • Take the upper aqueous phase to another centrifuge tube, add isopropanol at 0.4 mL isopropanol/mL Trizol, mix well, and stand at low temperature for 10-20 min; • Centrifuge at 4° C., 12,000 rpm for 15 min, discard the supernatant, RNA precipitated at the bottom of the tube; • Add 1 mL of 75% ethanol, gently shake the centrifuge tube, suspend the precipitate; • Centrifuge at 4° C., 12,000 rpm for 15 min, discard the supernatant, add 1 mL of 75% ethanol, gently shake the centrifuge tube, suspend the precipitate; • Centrifuge at 4° C., 12,000 rpm for 15 min, discard the supernatant, air-dry at room temperature, dissolve RNA samples in 50 μL RNase-free H2O, measure OD value to quantify RNA concentration. 3.3 Reverse Transcription of sRNA to cDNA:
The reverse transcription system is as follows: Template RNA (200 ng/μL) 10 μL, 10×RT Buffer 2.0 μL, 25×dNTP Mix (100 mM) 0.8 μL, U6 RT stem-loop primer (10 μM) 2.0 μL, PGY-sRNA-26 RT stem-loop primer (10 μM) 2.0 μL, MultiScribe™ Reverse Transcriptase (50 U/μL) 1.0 μL, RNAse Inhibitor (40 U/μL) 1.0 μL, nuclease-free H2O 1.2 μL. After transient centrifugation, the reverse transcription system was placed in a PCR machine with the following reaction conditions: (1) 25° C., 10 min; (2) 37° C., 120 min; (3) 85° C., 5 min; (4) 4° C., stop reaction. After the reaction, add 20 μL RNAse-free ddH2O, adjust the final volume to 40 μL. The stem-loop primers used in this reverse transcription process were synthesized by Beijing Tianyi Huiyuan Biotechnology Co., Ltd. (U6 was used as a standard reference gene to calculate its relative expression, because U6 RT primer was used as a reference gene in relative quantification of RT-qPCR reactions for small RNA): […]

Compound	delivery efficacy over each tissue and blood tested (broad-spectrum delivery)	oral delivery of single-stranded sRNA nucleic acids into mouse blood	oral delivery of single-stranded sRNA nucleic acids into mouse brain tissue	oral delivery of single-stranded sRNA nucleic acids into mouse femur	oral delivery of single-stranded sRNA nucleic acids into mouse heart tissue	oral delivery of single-stranded sRNA nucleic acids into mouse intestinal tissue	oral delivery of single-stranded sRNA nucleic acids into mouse kidney tissue	oral delivery of single-stranded sRNA nucleic acids into mouse liver tissue	oral delivery of single-stranded sRNA nucleic acids into mouse lung tissue	oral delivery of single-stranded sRNA nucleic acids into mouse spleen tissue	oral delivery of single-stranded sRNA nucleic acids into mouse stomach tissue
C[C@H](/C=C/[C@H](C)C(C)(C)O)[C@H]1CC[C@H]2/C(=C/C=C3C[C@@H](O)C[C@H](O)C3)CCC[C@]12C [Lipid 545]	exhibited the best delivery efficacy	can effectively orally deliver	can effectively orally deliver	can effectively orally deliver	can effectively orally deliver	can effectively orally deliver	can effectively orally deliver	can effectively orally deliver	can effectively orally deliver	can effectively orally deliver	can effectively orally deliver
C[C@]12CCC(=O)C=C1CC[C@@H]1[C@@H]2CC[C@@]2(C)[C@H]1CC[C@]2(C)O [Lipid 546]	exhibited the best delivery efficacy	can effectively orally deliver	can effectively orally deliver	can effectively orally deliver	can effectively orally deliver	can effectively orally deliver	can effectively orally deliver	can effectively orally deliver	can effectively orally deliver	can effectively orally deliver	can effectively orally deliver
C[C@H]1C[C@@H]2[C@H]([C@@H](O)C[C@@]3(C)[C@H]2CC[C@]3(O)C(=O)CO)[C@@]2(C)C=CC(=O)C=C12 [Lipid 547]	exhibited the best delivery efficacy	can effectively orally deliver		can effectively orally deliver	can effectively orally deliver	can effectively orally deliver	can effectively orally deliver	can effectively orally deliver	can effectively orally deliver	can effectively orally deliver	can effectively orally deliver
C[C@]12CC[C@H](O)C[C@@H]1CC[C@@H]1[C@@H]2CC[C@]2(C)[C@@H](O)CC[C@@H]12 [Lipid 548, 5α-androstanediol (3S,5S,8R,9S,10S,13S,14S,17S)-10,13-dimethyl-2,3,4,5,6,7,8,9,11,12,14,15,16,17-tetradecahydro-1H-cyclopenta[a]phenanthrene-3,17-diol]	exhibited the best delivery efficacy	can effectively orally deliver	can effectively orally deliver	can effectively orally deliver	can effectively orally deliver	can effectively orally deliver	can effectively orally deliver	can effectively orally deliver	can effectively orally deliver	can effectively orally deliver	can effectively orally deliver
C[C@]12CCC(=O)C=C1CC[C@@H]1[C@@H]2CC[C@@]2(C)[C@H]1CC[C@]2(O)C(=O)CO [Lipid 549]	exhibited the best delivery efficacy	can effectively orally deliver	can effectively orally deliver	can effectively orally deliver	can effectively orally deliver	can effectively orally deliver	can effectively orally deliver	can effectively orally deliver	can effectively orally deliver	can effectively orally deliver	can effectively orally deliver
C[C@@H]1O[C@@H](O[C@H]2C[C@@H](O)[C@]3(CO)[C@H]4[C@H](O)C[C@]5(C)[C@@H](C6=CC(=O)OC6)CC[C@]5(O)[C@@H]4CC[C@]3(O)C2)[C@H](O)[C@H](O)[C@H]1O [Lipid 550]	exhibited the best delivery efficacy	can effectively orally deliver	can effectively orally deliver	can effectively orally deliver	can effectively orally deliver	can effectively orally deliver	can effectively orally deliver	can effectively orally deliver	can effectively orally deliver	can effectively orally deliver	can effectively orally deliver
